Reference: the supplement of paper PMC11061612

Key:
Assay in all cases: Bliss excess, mean over the matrix (fraction); higher = more synergy
[1] = tested on: BxPC-3 (Pancreatic Carcinoma)
Summary of the method: (§1)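 Bliss excess equals the observed combination effect minus the expected value EA + EB − EA·EB, where EA and EB are the effects of each agent alone. Combination Emax is the second-highest inhibition within the matrix. Inhibition was scaled from CellTiter-Glo 2.0 luminescence, with 0 set by vehicle wells and 1 by blank wells, after 72 hours of two-drug dosing of cells plated in 1536-well plates.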

AM-38 (Glioblastoma) = tested on: AM-38 (Glioblastoma)
Summary of the method: as §1

[2] = tested on: MDA-MB-415 (Breast Carcinoma)
Summary of the method: as §1

[3] = tested on: MONO-MAC-6 (Acute Myeloid Leukemia)
Summary of the method: as §1

[4] = tested on: SiHa (Cervical Carcinoma)
Summary of the method: as §1

[5] = tested on: BHT-101 (Thyroid Gland Carcinoma)
Summary of the method: as §1

[6] = tested on: KP-4 (Pancreatic Carcinoma)
Summary of the method: as §1

NCI-H2373 (Mesothelioma) = tested on: NCI-H2373 (Mesothelioma)
Summary of the method: as §1

[7] = tested on: SK-CO-1 (Colorectal Carcinoma)
Summary of the method: as §1

[8] = tested on: ZR-75-30 (Breast Carcinoma)
Summary of the method: as §1

[9] = tested on: Raji (Burkitt's Lymphoma)
Summary of the method: as §1

[10] = tested on: SNU-423 (Hepatocellular Carcinoma)
Summary of the method: as §1

WM35 (Melanoma) = tested on: WM35 (Melanoma)
Summary of the method: as §1

[11] = tested on: SCC-4 (Oral Cavity Carcinoma)
Summary of the method: as §1

[12] = tested on: NAMALWA (Burkitt's Lymphoma)
Summary of the method: as §1

[13] = tested on: IA-LM (Non-Small Cell Lung Carcinoma)
Summary of the method: as §1

[14] = tested on: T84 (Colorectal Carcinoma)
Summary of the method: as §1

[15] = tested on: PL4 (Pancreatic Carcinoma)
Summary of the method: as §1

[16] = tested on: SUP-M2 (T-Cell Non-Hodgkin's Lymphoma)
Summary of the method: as §1

IST-MEL1 (Melanoma) = tested on: IST-MEL1 (Melanoma)
Summary of the method: as §1

SMILES	Bliss excess [1]	Bliss excess (AM-38 (Glioblastoma))	Bliss excess [2]	Bliss excess [3]	Bliss excess [4]	Bliss excess [5]	Bliss excess [6]	Bliss excess (NCI-H2373 (Mesothelioma))	Bliss excess [7]	Bliss excess [8]	Bliss excess [9]	Bliss excess [10]	Bliss excess (WM35 (Melanoma))	Bliss excess [11]	Bliss excess [12]	Bliss excess [13]	Bliss excess [14]	Bliss excess [15]	Bliss excess [16]	Bliss excess (IST-MEL1 (Melanoma))
Cc1c2c(nn1C)CSCc1cc(n(C)n1)CSc1cc(c3ccccc3c1)OCCCc1c(C(=O)O)n(C)c3c-2c(Cl)ccc13 [AZD5991] + C=CCn1c(=O)c2cnc(Nc3ccc(N4CCN(C)CC4)cc3)nc2n1-c1cccc(C(C)(C)O)n1 [AZD1775] (first compound max 1 µM, partner max 1 µM)	-0.0125	-0.0015	0.0011	-0.0256	-0.0646	0.0811	-0.0245	-0.0079	-0.0425	0.0376	-0.013	-0.0976	0.027	0.0917	0.0017	-0.0011	-0.0287	-0.0928	0.0007	-0.0318
Cc1c2c(nn1C)CSCc1cc(n(C)n1)CSc1cc(c3ccccc3c1)OCCCc1c(C(=O)O)n(C)c3c-2c(Cl)ccc13 [AZD5991] + CC1(C)CCC(CN2CCN(c3ccc(C(=O)NS(=O)(=O)c4ccc(NCC5CCOCC5)c([N+](=O)[O-])c4)c(Oc4cnc5[nH]ccc5c4)c3)CC2)=C(c2ccc(Cl)cc2)C1 [Venetoclax] (first compound max 1 µM, 7x7, partner max 1 µM)	0.0411	-0.0091	0.0637	0.136	-0.129	0.0146	-0.0563	-0.0391	-0.0378	0.0527	0.0287	-0.0736	0.0181	-0.0365	-0.0172	-0.007	-0.0369	-0.0611	0.0286	0.009
Cc1c2c(nn1C)CSCc1cc(n(C)n1)CSc1cc(c3ccccc3c1)OCCCc1c(C(=O)O)n(C)c3c-2c(Cl)ccc13 [AZD5991] + CCN(CCO)CCCOc1ccc2c(Nc3cc(CC(=O)Nc4cccc(F)c4)[nH]n3)ncnc2c1 [AZD2811] (first compound max 1 µM, 7x7, partner max 1 µM)	0.0412	0.0138	-0.108	0.0258	0.0009	-0.0507	0.0247	-0.0088	-0.0337	0.0825	0.0766	-0.0322	0.0333	0.0408	0.089	0.0059	0.0441	0.0467	0.0104	0.0931
Cc1c2c(nn1C)CSCc1cc(n(C)n1)CSc1cc(c3ccccc3c1)OCCCc1c(C(=O)O)n(C)c3c-2c(Cl)ccc13 [AZD5991] + CN(C)CCCOc1ccc(-c2ccc3ncc4c(c3c2)n(C2CCOCC2)c(=O)n4C)cn1 [AZD0156] (first compound max 1 µM, 7x7, partner max 1 µM)	0.0229	0.0291	-0.0183	-0.0433	0.0341	0.0638	0.0187	-0.0069	-0.0182	-0.0128	-0.0213	-0.0259	0.0155	-0.0232	-0.0079	-0.0333	-0.0112	0.056	-0.0012	-0.0282
Cc1c2c(nn1C)CSCc1cc(n(C)n1)CSc1cc(c3ccccc3c1)OCCCc1c(C(=O)O)n(C)c3c-2c(Cl)ccc13 [AZD5991] + C[C@@H]1COCCN1C2=NC(=NC(=C2)C3(CC3)[S@](=N)(=O)C)C4=C5C=CNC5=NC=C4 [AZD6738] (first compound max 1 µM, 7x7, partner max 10 µM)	-0.01	0.0312	0.0328	-0.02	0.0122	0.0666	0.0389	0.0293	-0.0164	0.0285	0.055	0.0026	0.0604	-0.0003	-0.0012	0.0255	-0.0127	0.0606	0.0505	-0.0344
Cc1c2c(nn1C)CSCc1cc(n(C)n1)CSc1cc(c3ccccc3c1)OCCCc1c(C(=O)O)n(C)c3c-2c(Cl)ccc13 [AZD5991] + Cc1cc2ncnn2cc1Nc1ncc2c(n1)n(C1CCOCC1)c(=O)n2C [AZD7648] (first compound max 1 µM, 7x7, partner max 10 µM)	-0.0007	-0.0347	-0.0924	0.016	-0.0234	-0.0308	-0.0261	-0.015	-0.0402	-0.0134	0.0794	-0.0768	-0.0073	-0.0269	-0.0286	-0.0226	-0.0431	-0.0395	-0.0146	-0.0048
C[C@@H]1COCCN1c1cc(C2([S@](C)(=N)=O)CC2)nc(-c2ccnc3[nH]ccc23)n1 [AZD6738] + O=C(c1cc(Cc2n[nH]c(=O)c3ccccc23)ccc1F)N1CCN(C(=O)C2CC2)CC1 [Olaparib] (first compound max 10 µM, 7x7, partner max 10 µM)	0.0231	0.0226	0.0239	-0.0438	0.0106	0.016	0.113	0.0165	0.013	-0.0408	-0.0204	-0.0005	0.0084	0.059	-0.0187	0.0137	-0.027	-0.0408	0.0646	0.035
